# Data published in patent US20110223132A1, “ISOTHIAZOLOQUINOLONES AND RELATED COMPOUNDS AS ANTI-INFECTIVE AGENTS” (priority 2003, published 2011).
# Tests used:
# S. aureus ATCC 29213 = experiment: Minimum inhibitory concentration (MIC) assay, broth microdilution; assay type: cell-based; settings: Staphylococcus aureus, ATCC29213; S. aureus ATCC 29213, Mueller-Hinton II broth, 37° C., 18 to 24 hours
# Protocol: (§1) The antimicrobial activity of the compounds of the invention may be evaluated by a number of methods, including the following visual minimum inhibitory concentration (MIC) assay. This assay determines the minimum concentration of compound required to inhibit growth of a bacterial strain. Whole-cell antibacterial activity is determined by broth microdilution using conditions recommended by the NCCLS (see National Committee for Clinical Laboratory Standards. 2001. Performance standards for antimicrobial susceptibility testing: 11th informational supplement. Vol. 21, no. 1, M100-S11. National Committee for Clinical Laboratory Standards, Wayne, Pa.). Test compounds are dissolved in DMSO and diluted 1:50 in Mueller-Hinton II broth (Becton-Dickinson) to produce a 256 μg/ml stock solution. In a 96-well microtiter plate, the compound solution is serially two-fold diluted in Mueller-Hinton II broth. After the compounds are diluted, a […] aliquot of the test organism (˜1×10^6 cfu/mL) is added to each well of the microtiter plate. The final test concentrations range from 0.125-128 μg/mL Inoculated plates are incubated in ambient air at 37° C. for 18 to 24 hours. The organisms selected for testing included laboratory strains S. aureus ATCC 29213 and E. coli ATCC 25922 (strains purchased from American Type Culture Collection, Manassas, Va.). The minimum inhibitory concentration (MIC) was determined as the lowest concentration of compound that inhibited visible growth of the test organism.
# E. coli ATCC 25922 = experiment: as above; assay type: cell-based; settings: Escherichia coli, ATCC25922; E. coli ATCC 25922, Mueller-Hinton II broth, 37° C., 18 to 24 hours
# Protocol: as §1
# [1] = Compound cytotoxicity, cell viability staining with Alamar Blue; assay type: cell-based; settings: human, Hep 2 cells (laryngeal carcinoma), positive control
# Protocol: (§2) Optimal cell density is first determined by plating cells in a 96-well plate standard sterile tissue culture plates in 100 μl media, 10% FBS at six cell densities from 500 cells/well to 15,000 cells/well. A cell free well containing only media is used as a control. Cells are incubated at 37° C. in a 5% CO2 incubator for 24 hours. 10% culture volume (10 ul) of Alamar Blue (Biosource, DAL1100, 100 mL) is then added. Cells are incubated at 37° C. in a 5% CO2 incubator and read in a Victor V plate reader, 544 nm excitation, 590 nm emission, at 3, 4, and 24 hours after the addition of Alamar Blue. The cell number vs. change in fluorescence is plotted to determine linearity of signal vs. cell number. The optimal density varies between 500-15,000 cells/well depending on the specific cell type. The optimal density is selected based on the highest number of cells that is still in the linear response range. Cells are plated at optimal cell density in a standard sterile tissue culture 96 well plate, and incubated at 37° C., O/N in a 5% CO2 incubator. 12 to 48 hours post-plating media is removed. […] Plates are incubated 4 hours at 37° C. in a 5% CO2 incubator and read in a Victor V plate reader, 544 nm excitation, 590 nm emission. […] The change in fluorescence vs. concentration of test compound is plotted to determine the cytotoxicity of the compound.
# [2] = as above; assay type: cell-based; settings: Chinese hamster, CHO cells (Chinese hamster ovary), positive control
# Protocol: as §2
compound,measurement,setting,value
O=c1[nH]sc2c1c(=O)c1cc(F)c(C3=CCNCC3)cc1n2C1CC1,melting point,,> 241 °C (dec.)
"NC1CCc2cc(-c3cc4c(cc3F)c(=O)c3c(=O)[nH]sc3n4C3CC3)ccc2C1 (racemic) [Compound 31, (Rac)-7-(6-Amino-5,6,7,8-Tetrahydronaphthalen-2-Yl)-9-Cyclopropyl-6-Fluoro-9H-Isothiazolo[5,4-B]Quinoline-3,4-Dione]",melting point,,> 257 °C (dec.)
"O=c1[nH]sc2c1c(=O)c1cc(F)c(-c3ccccc3)cc1n2C1CC1 [Compound 32, 9-Cyclopropyl-6-fluoro-7-phenyl-9H-isothiazolo[5,4-b]quinoline-3,4-dione]",MIC,S. aureus ATCC 29213,0.007 µg/mL
same,MIC,E. coli ATCC 25922,0.06 µg/mL
"O=c1[nH]sc2c1c(=O)c1cc(F)c(-c3cccnc3)cc1n2C1CC1 [Compound 33, 9-Cyclopropyl-6-fluoro-7-pyridin-3-yl-9H-isothiazolo [5,4-b]quinoline-3,4-dione]",MIC,S. aureus ATCC 29213,0.007 µg/mL
same,MIC,E. coli ATCC 25922,0.003 µg/mL
"O=C(O)c1cccc(-c2cc3c(cc2F)c(=O)c2c(=O)[nH]sc2n3C2CC2)c1 [Compound 34, 3-(9-Cyclopropyl-6-fluoro-3,4-dioxo-2,3,4,9-tetrahydro-isothiazolo[5,4-b]quinolin-7-yl)-benzoic acid]",MIC,S. aureus ATCC 29213,0.125 µg/mL
same,MIC,E. coli ATCC 25922,1 µg/mL
"CCOc1cccc(-c2cc3c(cc2F)c(=O)c2c(=O)[nH]sc2n3C2CC2)c1 [Compound 35, 9-Cyclopropyl-7-(3-ethoxy-phenyl)-6-fluoro-9H-isothiazolo[5,4-b]quinoline-3,4-dione]",MIC,S. aureus ATCC 29213,0.03 µg/mL
same,MIC,E. coli ATCC 25922,1 µg/mL
CC(C)(C)c1ccc(C(O)CCCN2CCC(C(O)(c3ccccc3)c3ccccc3)CC2)cc1 (stereo not drawn) [Terfenadine],CC50,[1],3 to 5 µM
same,CC50,[2],4.3 to 6.5 µM
